# Where two headings read alike, the source gives them in different places.
# Key:
# Assay type in all cases: cell-based
# [1] = system: Klebsiella pneumoniae strains; assay: Antibiotic susceptibility (CLSI category) of K. pneumoniae clinical isolates; for Antibiotic susceptibility and clinical category (CLSI breakpoint): key: S, susceptible; R, resistant; I, intermediate
# [2] = system: Acinetobacter baumannii isogenic strains; assay: microbe, parasite or virus in culture; conditions: for MIC: Acinetobacter baumannii
# K. pneumoniea = assay: MIC by broth microdilution (Table 4), K. pneumoniae
# Description: (§1) The minimum inhibitory concentration (MIC) values were determined by broth microdilution method according to “Methods for Dilution Antimicrobial Susceptibility Tests for Bacteria That Grow Aerobically: Approved Standard M7-A7. CLSI, Wayne, Pa., USA, 2006” Colistin and amikacin free drugs were evaluated to compare the efficacy of nanoparticles. MIC was evaluated in Pa46, Pa1016, Kp1, Kp4, Abl4, Ab4256, MRSA 15, MRSA 16, SE14 an SE94 strains. ATCC P. aeruginosa 27853, ATCC E. coli 25922 and ATCC A. baumannii 19606 were used as quality control.
# A. baumannii = assay: MIC by broth microdilution (Table 4), A. baumannii
# Description: as §1
# [3] = system: methicillin-resistant S. aureus; assay: MIC by broth microdilution (Table 4), MRSA
# Description: as §1
# S. epidermidis = assay: MIC by broth microdilution (Table 4), S. epidermidis
# Description: as §1
# [4] = system: Pseudomonas aeruginosa strains; assay: Susceptibility (MIC, CLSI category) of P. aeruginosa clinical isolates; for clinical category (CLSI breakpoint): key: S, susceptible; R, resistant; I, intermediate
# P. aeruginosa = assay: MIC by broth microdilution (Table 4), P. aeruginosa
# Description: as §1
# [5] = strain Kp1 (XDR, CTX-M, OXA-48)
# [6] = read-out: MIC values, strain Abl1 (ST103)
# [7] = read-out: MIC values, strain Abl4 (ST2)
# [8] = read-out: MIC values, strain Abl4256 (ST38)
# [9] = Pseudomonas aeruginosa, strain Pa46 (ST111, XDR, VIM-2), read-out: MIC
# [10] = Pseudomonas aeruginosa, strain Pa54 (ST111, XDR, VIM-2), read-out: MIC
# [11] = Pseudomonas aeruginosa, strain Pa1016 (ST175, XDR), read-out: MIC
compound,measurement,setting,value
"CC1(C)S[C@@H]2[C@H](NC(=O)[C@H](N)c3ccccc3)C(=O)N2[C@H]1C(=O)O [AMP, ampicillin]",Antibiotic susceptibility and clinical category (CLSI breakpoint),[1]; [5],R
same,Antibiotic susceptibility and clinical category (CLSI breakpoint),"[1]; strain Kp2 (XDR, CTX-M, NDM)",R
same,Antibiotic susceptibility and clinical category (CLSI breakpoint),"[1]; strain Kp3 (XDR, KPC)",R
same,Antibiotic susceptibility and clinical category (CLSI breakpoint),"[1]; strain Kp4 (XDR, AmpC)",R
"CN(C)c1cc(NC(=O)CNC(C)(C)C)c(O)c2c1C[C@H]1C[C@H]3[C@H](N(C)C)C(O)=C(C(N)=O)C(=O)[C@@]3(O)C(O)=C1C2=O [TIG, tigecycline]",MIC,[2]; [6],2 µg/mL
same,MIC,[2]; [7],4 µg/mL
same,MIC,[2]; [8],0.5 µg/mL
same,susceptibility,[2]; strain AbII (ST103),susceptible
same,susceptibility,[2]; strain Abl4 (ST2),susceptible
colistin,MIC,K. pneumoniea; strain Kp1,1 µg/mL
same,MIC,K. pneumoniea; strain Kp4,0.125 to 0.25 µg/mL
same,MIC,A. baumannii; strain Ab4256,0.25 µg/mL
same,MIC,A. baumannii; strain Abl4,1 µg/mL
same,susceptibility,[2]; strain AbII (ST103),susceptible
same,MIC values,[2]; strain Abl1 (ST103),<=0.5 mg/L
same,MIC values,[2]; strain Abl4 (ST2),<=0.5 mg/L
same,susceptibility,[2]; strain Abl4 (ST2),susceptible
same,MIC values,[2]; strain Abl4256 (ST38),0.25 µg/mL
same,MIC,[3]; strain MRSA15,>128 µg/mL
same,susceptibility,[1]; strain Kp1,susceptible
same,Antibiotic susceptibility and clinical category (CLSI breakpoint),[1]; [5],S
same,susceptibility,[1]; strain Kp2,susceptible
same,Antibiotic susceptibility and clinical category (CLSI breakpoint),"[1]; strain Kp2 (XDR, CTX-M, NDM)",S
same,susceptibility,[1]; strain Kp3,susceptible
same,Antibiotic susceptibility and clinical category (CLSI breakpoint),"[1]; strain Kp3 (XDR, KPC)",S
same,susceptibility,[1]; strain Kp4,susceptible
same,Antibiotic susceptibility and clinical category (CLSI breakpoint),"[1]; strain Kp4 (XDR, AmpC)",S
same,MIC,S. epidermidis; strain SE14,32 to 64 µg/mL
same,MIC,S. epidermidis; strain SE94,32 µg/mL
same,clinical category (CLSI breakpoint),[4]; strain Pa46,S
same,susceptibility,[4]; strain Pa46,susceptible
same,MIC,"[4]; strain Pa46 (ST111, XDR, VIM-2)",0.5 µg/mL
same,clinical category (CLSI breakpoint),[4]; strain Pa54,S
same,susceptibility,[4]; strain Pa54,susceptible
same,MIC,"[4]; strain Pa54 (ST111, XDR, VIM-2)",0.5 µg/mL
same,clinical category (CLSI breakpoint),[4]; strain Pa1016,S
same,susceptibility,[4]; strain Pa1016,susceptible
same,MIC,"[4]; strain Pa1016 (ST175, XDR)",1 µg/mL
same,MIC,P. aeruginosa; strain Pa46,0.5 to 1 µg/mL
same,MIC,P. aeruginosa; strain Pa1016,0.5 to 1 µg/mL
"CC(C)(O/N=C(\C(=O)N[C@@H]1C(=O)N2C(C(=O)[O-])=C(C[n+]3ccccc3)CS[C@H]12)c1csc(N)n1)C(=O)O [CAZ, ceftazidime]",MIC,[2]; [6],≥ 64 µg/mL
same,MIC,[2]; [7],≥ 64 µg/mL
same,MIC,[2]; [8],< 8 µg/mL
same,Antibiotic susceptibility and clinical category (CLSI breakpoint),[1]; [5],R
same,Antibiotic susceptibility and clinical category (CLSI breakpoint),"[1]; strain Kp2 (XDR, CTX-M, NDM)",R
same,Antibiotic susceptibility and clinical category (CLSI breakpoint),"[1]; strain Kp3 (XDR, KPC)",R
same,Antibiotic susceptibility and clinical category (CLSI breakpoint),"[1]; strain Kp4 (XDR, AmpC)",R
"CO/N=C(\C(=O)N[C@@H]1C(=O)N2C(C(=O)[O-])=C(C[N+]3(C)CCCC3)CS[C@H]12)c1csc(N)n1 [FEP, cefepime]",MIC,[2]; [6],≥ 64 µg/mL
same,MIC,[2]; [7],≥ 64 µg/mL
same,MIC,[2]; [8],16 µg/mL
same,Antibiotic susceptibility and clinical category (CLSI breakpoint),[1]; [5],R
same,Antibiotic susceptibility and clinical category (CLSI breakpoint),"[1]; strain Kp2 (XDR, CTX-M, NDM)",R
same,Antibiotic susceptibility and clinical category (CLSI breakpoint),"[1]; strain Kp3 (XDR, KPC)",R
same,Antibiotic susceptibility and clinical category (CLSI breakpoint),"[1]; strain Kp4 (XDR, AmpC)",R
"C[C@@H](O)[C@H]1C(=O)N2C(C(=O)O)=C(S[C@@H]3CN[C@H](C(=O)N(C)C)C3)[C@H](C)[C@H]12 [MEM, meropenem]",MIC,[2]; [6],≥ 16 µg/mL
same,MIC,[2]; [7],≥ 16 µg/mL
same,MIC,[2]; [8],> 16 µg/mL
same,Antibiotic susceptibility and clinical category (CLSI breakpoint),[1]; [5],R
same,Antibiotic susceptibility and clinical category (CLSI breakpoint),"[1]; strain Kp2 (XDR, CTX-M, NDM)",R
same,Antibiotic susceptibility and clinical category (CLSI breakpoint),"[1]; strain Kp3 (XDR, KPC)",R
same,Antibiotic susceptibility and clinical category (CLSI breakpoint),"[1]; strain Kp4 (XDR, AmpC)",R
"NC[C@H]1O[C@H](O[C@H]2[C@H](O)[C@@H](O[C@H]3O[C@H](CO)[C@@H](O)[C@H](N)[C@H]3O)[C@H](N)C[C@@H]2N)[C@H](N)C[C@@H]1O [TOB, tobramycin]",MIC,[4]; [9],64 µg/mL
same,MIC,[4]; [10],128 µg/mL
same,MIC,[4]; [11],16 µg/mL
same,clinical category (CLSI breakpoint),[4]; strain Pa46,R
same,clinical category (CLSI breakpoint),[4]; strain Pa54,R
same,clinical category (CLSI breakpoint),[4]; strain Pa1016,R
"C[C@H]1COc2c(N3CCN(C)CC3)c(F)cc3c(=O)c(C(=O)O)cn1c23 [LVX, levofloxacin]",MIC,[2]; [6],4 µg/mL
same,MIC,[2]; [7],4 µg/mL
same,MIC,[2]; [8],≤ 1 µg/mL
same,MIC,[4]; [9],32 µg/mL
same,MIC,[4]; [10],32 µg/mL
same,MIC,[4]; [11],128 µg/mL
same,clinical category (CLSI breakpoint),[4]; strain Pa46,R
same,clinical category (CLSI breakpoint),[4]; strain Pa54,R
same,clinical category (CLSI breakpoint),[4]; strain Pa1016,R
"C[C@@H]1O[C@@H]1P(=O)(O)O [FOS, fosfomycin]",susceptibility,[1]; strain Kp1,susceptible
same,Antibiotic susceptibility and clinical category (CLSI breakpoint),[1]; [5],S
same,susceptibility,[1]; strain Kp2,susceptible
same,Antibiotic susceptibility and clinical category (CLSI breakpoint),"[1]; strain Kp2 (XDR, CTX-M, NDM)",S
same,Antibiotic susceptibility and clinical category (CLSI breakpoint),"[1]; strain Kp3 (XDR, KPC)",R
same,Antibiotic susceptibility and clinical category (CLSI breakpoint),"[1]; strain Kp4 (XDR, AmpC)",R
"C[C@@H](O)[C@H]1C(=O)N2C(C(=O)O)=C(SCCN=CN)C[C@H]12 [IMP, imipenem]",MIC,[2]; [6],≥ 16 µg/mL
same,MIC,[2]; [7],≥ 16 µg/mL
same,MIC,[2]; [8],64 µg/mL
same,Antibiotic susceptibility and clinical category (CLSI breakpoint),[1]; [5],R
same,Antibiotic susceptibility and clinical category (CLSI breakpoint),"[1]; strain Kp2 (XDR, CTX-M, NDM)",R
same,Antibiotic susceptibility and clinical category (CLSI breakpoint),"[1]; strain Kp3 (XDR, KPC)",R
same,Antibiotic susceptibility and clinical category (CLSI breakpoint),"[1]; strain Kp4 (XDR, AmpC)",R
same,MIC,[4]; [9],256 µg/mL
same,MIC,[4]; [10],256 µg/mL
same,MIC,[4]; [11],16 µg/mL
CCN1CCN(C(=O)N[C@@H](C(=O)N[C@@H]2C(=O)N3[C@@H]2SC(C)(C)[C@@H]3C(=O)O)c2ccccc2)C(=O)C1=O [PIP],MIC values,[2]; strain Abl1 (ST103),>=128 mg/L
same,MIC values,[2]; strain Abl4 (ST2),>=128 mg/L
same,MIC values,[2]; strain Abl4256 (ST38),>64 µg/mL
gentamicin,MIC values,[2]; strain Abl1 (ST103),>=16 mg/L
same,MIC values,[2]; strain Abl4 (ST2),4 µg/mL
same,MIC values,[2]; strain Abl4256 (ST38),>8 µg/mL
same,Antibiotic susceptibility and clinical category (CLSI breakpoint),[1]; [5],R
same,Antibiotic susceptibility and clinical category (CLSI breakpoint),"[1]; strain Kp2 (XDR, CTX-M, NDM)",R
same,susceptibility,[1]; strain Kp3,susceptible
same,Antibiotic susceptibility and clinical category (CLSI breakpoint),"[1]; strain Kp3 (XDR, KPC)",S
same,Antibiotic susceptibility and clinical category (CLSI breakpoint),"[1]; strain Kp4 (XDR, AmpC)",R
"C[C@H]1[C@H](NC(=O)/C(=N\OC(C)(C)C(=O)O)c2csc(N)n2)C(=O)N1S(=O)(=O)O [ATM, aztreonam]",MIC,[4]; [9],16 µg/mL
same,MIC,[4]; [10],32 µg/mL
same,MIC,[4]; [11],32 µg/mL
"NCC[C@H](O)C(=O)N[C@@H]1C[C@H](N)[C@@H](O[C@H]2O[C@H](CN)[C@@H](O)[C@H](O)[C@H]2O)[C@H](O)[C@H]1O[C@H]1O[C@H](CO)[C@@H](O)[C@H](N)[C@H]1O [Amikacin, amikacin]",MIC,"K. pneumoniea; Klebsiella pneumoniae, strain Kp1, read-out: MIC",2 µg/mL
same,MIC,"K. pneumoniea; Klebsiella pneumoniae, strain Kp4, read-out: MIC",1 to 2 µg/mL
same,MIC,"A. baumannii; Acinetobacter baumannii, strain Ab4256, read-out: MIC",8 µg/mL
same,MIC,"A. baumannii; Acinetobacter baumannii, strain Abl4, read-out: MIC",1 µg/mL
same,MIC,[2]; [7],≤ 2 µg/mL
same,susceptibility,[2]; strain Abl4 (ST2),susceptible
same,MIC,"[3]; Staphylococcus aureus, strain MRSA15, read-out: MIC",8 to 16 µg/mL
same,MIC,[3]; strain MRSA16,8 to 16 µg/mL
same,susceptibility,[1]; strain Kp1,susceptible
same,Antibiotic susceptibility and clinical category (CLSI breakpoint),[1]; [5],S
same,Antibiotic susceptibility and clinical category (CLSI breakpoint),"[1]; strain Kp2 (XDR, CTX-M, NDM)",R
same,Antibiotic susceptibility and clinical category (CLSI breakpoint),"[1]; strain Kp3 (XDR, KPC)",R
same,susceptibility,[1]; strain Kp4,susceptible
same,Antibiotic susceptibility and clinical category (CLSI breakpoint),"[1]; strain Kp4 (XDR, AmpC)",S
same,MIC,"S. epidermidis; Staphylococcus epidermidis, strain SE14, read-out: MIC",1 to 2 µg/mL
same,MIC,"S. epidermidis; Staphylococcus epidermidis, strain SE94, read-out: MIC",1 µg/mL
same,MIC,[4]; [9],16 µg/mL
same,MIC,[4]; [10],16 µg/mL
same,MIC,[4]; [11],2 µg/mL
same,clinical category (CLSI breakpoint),[4]; strain Pa46,S
same,susceptibility,[4]; strain Pa46,susceptible
same,clinical category (CLSI breakpoint),[4]; strain Pa54,S
same,susceptibility,[4]; strain Pa54,susceptible
same,clinical category (CLSI breakpoint),[4]; strain Pa1016,S
same,susceptibility,[4]; strain Pa1016,susceptible
same,MIC,"P. aeruginosa; Pseudomonas aeruginosa, strain Pa46, read-out: MIC",8 µg/mL
same,MIC,"P. aeruginosa; Pseudomonas aeruginosa, strain Pa1016, read-out: MIC",0.5 µg/mL

# Reference: patent US10894085B2, “System for thermotherapy treatment or prevention of antimicrobial resistant or biofilm infections” (FUNDACIÓ HOSPITAL UNIVERSITARI VALL D'HEBRON—INSTITUT DE …, priority 2016, dated 2021)
